{"source": "patent US7105516B2", "about": "“Compounds for the treatment of premature ejaculation” (Bristol-Myers Squibb Company, priority 2002, dated 2006)"}
{"molecular_target": "T1, human serotonin transporters (Homo sapiens, UniProt P31645)", "T1 construct": "expressed in transfected cells; membrane homogenates", "T1 sequence (P31645 whole entry)": "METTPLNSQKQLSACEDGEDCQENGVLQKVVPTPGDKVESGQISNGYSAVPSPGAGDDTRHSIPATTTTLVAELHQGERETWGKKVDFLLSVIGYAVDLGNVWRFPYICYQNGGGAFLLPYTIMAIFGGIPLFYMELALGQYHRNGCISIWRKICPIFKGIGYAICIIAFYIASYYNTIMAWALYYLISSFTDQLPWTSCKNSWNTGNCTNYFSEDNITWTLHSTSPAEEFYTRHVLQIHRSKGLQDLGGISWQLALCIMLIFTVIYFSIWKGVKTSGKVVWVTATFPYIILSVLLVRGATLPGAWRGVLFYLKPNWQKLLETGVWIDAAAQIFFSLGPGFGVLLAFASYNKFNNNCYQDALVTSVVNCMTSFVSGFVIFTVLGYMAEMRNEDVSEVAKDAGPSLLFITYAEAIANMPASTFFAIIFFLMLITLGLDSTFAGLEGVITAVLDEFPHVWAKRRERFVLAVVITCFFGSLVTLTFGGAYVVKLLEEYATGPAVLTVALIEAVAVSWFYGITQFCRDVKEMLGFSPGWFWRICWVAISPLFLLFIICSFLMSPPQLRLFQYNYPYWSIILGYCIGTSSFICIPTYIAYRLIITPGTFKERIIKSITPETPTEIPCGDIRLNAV", "test": "Serotonin Transporter Binding Assay ([3H]-citalopram displacement, HEK-hSERT cell membranes)", "details": "1 nM [3H]-citalopram, 1 hr at 25° C., read-out: 5-HT reuptake binding Ki", "procedure": "HEK-293 cells that stably express human serotonin transporters (HEK-hSERT cells) were grown at 37° C. in 5% CO2 as a monolayer in medium consisting of EMEM supplemented with 10% fetal bovine serum and G418 sulfate (500 μg/mL). […] Cells were transferred from plates to polypropylene tubes (16×100 mm), centrifuged at 1,200×g for 5 min and were frozen at −80° C. until assay. Following centrifugation, pellets were resuspended by homogenization in buffer consisting of 50 mM Tris (pH 7.7 at 25° C.), 120 mM NaCl and 5 mM KCl and then centrifuged at 32,000×g for 10 min. Following centrifugation, supernatants were discarded and pellets were resuspended in buffer consisting of 50 mM Tris (pH 7.4 at 25° C.), 150 mM NaCl and 5 mM KCl. Membrane homogenates (200 μl/plate) were incubated with 1 nM [^3H]-citalopram (specific activity=85 Ci/mMol) and increasing concentrations of test compounds for 1 hr at 25° C. in a total volume of 250 μl. The assay buffer consisted of 50 mM Tris (pH 7.4 at 25° C.), 120 mM NaCl and 5 mM KCl (pH 7.4 with conc. HCl). Plates were incubated for 1 hr at 25° C., then filtered through 0.5% PEI treated Whatman GF/B filters using a Brandel cell harvester. Filters were washed three times with 3 mL of ice-cold tris wash buffer. Non-specific binding was defined with 10 μM fluoxetine. Amount of radioligand bound in the presence and absence of competitor was analyzed by plotting (−)log drug concentration versus the amount of radioligand specifically bound. The midpoint of the displacement curve (IC50, nM), signifies the potency.", "units": {"Ki": "nM"}}
{"smiles": "N#Cc1ccc2[nH]cc(CC3CCCC3N3CCCC3)c2c1", "note": "(centres unmarked) [Example 59, 3-(2-Pyrrolidin-1-yl-cyclopentylmethyl)-1H-indole-5-carbonitrile]", "Ki": "1 to 10"}
{"smiles": "CC([C@H]1CCCC1c1c[nH]c2ccc(C#N)cc12)N(C)C", "note": "(single isomer, unassigned) [Example 49]", "Ki": "< 1"}
{"smiles": "CN(Cc1ccccc1)C1CCCC1Cc1c[nH]c2ccc(C#N)cc12", "note": "(centres unmarked) [Example 60, 3-[2-(Benzyl-methyl-amino)-cyclopentylmethyl]-1H-indole-5-carbonitrile]", "Ki": "10 to 100"}
{"smiles": "CN(C)C1CCCC1Cc1c[nH]c2ccc(C#N)cc12", "note": "(mixture of isomers) [Example 54, 3-(2-Dimethylamino-cyclopentylmethyl)-1H-indole-5-carbonitrile]", "Ki": "1 to 10"}
{"smiles": "CCNC1CCCC1Cc1c[nH]c2ccc(C#N)cc12", "note": "(centres unmarked) [Example 56, 3-(2-Ethylamino-cyclopentylmethyl)-1H-indole-5-carbonitrile]", "Ki": "1 to 10"}
{"smiles": "CCN(C)C1CCCC1Cc1c[nH]c2ccc(C#N)cc12", "note": "(centres unmarked) [Example 58, 3-[2-(Ethyl-methyl-amino)-cyclopentylmethyl]-1H-indole-5-carbonitrile]", "Ki": "1 to 10"}
{"smiles": "CC([C@H]1CCCC1c1c[nH]c2ccc(C#N)cc12)N(C)C", "note": "(single isomer, unassigned) [Example 48]", "Ki": "10 to 100"}
{"smiles": "CCN(CC)C1CCCC1Cc1c[nH]c2ccc(C#N)cc12", "note": "(centres unmarked) [Example 57, 3-(2-Diethylamino-cyclopentylmethyl)-1H-indole-5-carbonitrile]", "Ki": "10 to 100"}
{"smiles": "CCC([C@H]1CCC[C@@H]1c1c[nH]c2ccc(C#N)cc12)N(C)C", "note": "(mixture of isomers) [Example 50, (+/−) trans-3-[2-(1-dimethylaminopropyl)cyclopentyl]-1H-indole-5-carbonitrile,diastereomer A]", "Ki": "10 to 100"}
{"smiles": "CC([C@H]1CCCC1c1c[nH]c2ccc(C#N)cc12)N(C)C", "note": "(single isomer, unassigned; diastereomer b) [Example 47, (+/−) trans-3-[2-(1-dimethylaminoethyl)cyclopentyl]-1H-indole-5-carbonitrile,diastereomer B]", "Ki": "1 to 10"}
{"smiles": "CCC([C@H]1CCC[C@@H]1c1c[nH]c2ccc(C#N)cc12)N(C)C", "note": "(mixture of isomers) [Example 51, (+/−) trans-3-[2-(1-dimethylaminopropyl)cyclopentyl]-1H-indole-5-carbonitrile,diastereomer B]", "Ki": "100 to 500"}
{"smiles": "CN(C)C[C@@H]1CCC[C@@H]1c1ccc2[nH]cc(C#N)c2c1", "note": "(relative stereo) [Example 43, Cis-5-(dimethylaminomethyl-cyclopentyl)-1H-indole-3-carbonitrile]", "Ki": "1 to 10"}
{"smiles": "CNC1CCCC1Cc1c[nH]c2ccc(C#N)cc12", "note": "(centres unmarked) [Example 55, 3-(2-Methylamino-cyclopentylmethyl)-1H-indole-5-carbonitrile]", "Ki": "1 to 10"}
{"smiles": "CN(C)C[C@H]1CCC[C@@H]1c1c[nH]c2ccc(I)cc12", "note": "[Example 52, (1S,2S)-[2-(5-iodo-1H-indol-3-yl)-cyclopentylmethyl]-dimethylamine]", "Ki": "10 to 100"}
